# Experimental data taken from ChEMBL document CHEMBL5532698, “2,3-Dihydroquinazolin-4(1H)-ones and quinazolin-4(3H)-ones as broad-spectrum cytotoxic agents and their impact on tubulin polymerisation” (RSC Med Chem, 2024).
# Active and inactive are the calls of the source. The rule behind the calls is not given here.
# Legend:
# HepG2 = test: Antiproliferative activity against human HepG2 cells assessed as reduction in cell viability incubated for 48 hrs by MTT assay; format: functional, cell-based; conditions: HepG2, 48 h
# MIA PaCa-2 [1] = test: Induction of G2/M phase cell cycle arrest in human MIA PaCa-2 cells at 0.5 uM incubated for 24 hrs by PI/RNase staining based analysis (reference value: 20 +/- 1%); format: functional
# MIA PaCa-2 [2] = test: Induction of G2/M phase cell cycle arrest in human MIA PaCa-2 cells assessed as S phase cells at 0.5 uM incubated for 24 hrs by PI/RNase staining based analysis (reference value: 11 +/- 1%); format: functional
# MIA PaCa-2 [3] = test: Induction of G2/M phase cell cycle arrest in human MIA PaCa-2 cells assessed as G1 phase cells at 0.1 uM incubated for 24 hrs by PI/RNase staining based analysis (reference value: 66 +/- 2%); format: functional
# WRL68 = test: Antiproliferative activity against human WRL68 cells assessed as reduction in cell viability incubated for 48 hrs by MTT assay; format: functional, cell-based; conditions: WRL68, 48 h
# MIA PaCa-2 [4] = test: Induction of G2/M phase cell cycle arrest in human MIA PaCa-2 cells assessed as sub G1 phase cells at 0.5 uM incubated for 24 hrs by PI/RNase staining based analysis (reference value: 4 +/- 2%); format: functional
# HCT-116 = test: Antiproliferative activity against human HCT-116 cells assessed as reduction in cell viability incubated for 48 hrs by MTT assay; format: functional, cell-based; conditions: HCT-116, 48 h
# MIA PaCa-2 [5] = test: Induction of G2/M phase cell cycle arrest in human MIA PaCa-2 cells at 0.1 uM incubated for 24 hrs by PI/RNase staining based analysis (reference value: 20 +/- 1%); format: functional
# MIA PaCa-2 [6] = test: Induction of G2/M phase cell cycle arrest in human MIA PaCa-2 cells assessed as S phase cells at 0.1 uM incubated for 24 hrs by PI/RNase staining based analysis (reference value: 11 +/- 1%); format: functional
# A549 = test: Antiproliferative activity against human A549 cells assessed as reduction in cell viability incubated for 48 hrs by MTT assay; format: functional, cell-based; conditions: A549, 48 h
# MIA PaCa-2 [7] = test: Induction of G2/M phase cell cycle arrest in human MIA PaCa-2 cells assessed as sub G1 phase cells at 0.1 uM incubated for 24 hrs by PI/RNase staining based analysis (reference value: 4 +/- 2%); format: functional
# MIA PaCa-2 [8] = test: Induction of G2/M phase cell cycle arrest in human MIA PaCa-2 cells assessed as G1 phase cells at 0.5 uM incubated for 24 hrs by PI/RNase staining based analysis (reference value: 66 +/- 2%); format: functional
# HeLa = test: Antiproliferative activity against human HeLa cells assessed as reduction in cell viability incubated for 48 hrs by MTT assay; format: functional, cell-based
# Tubulin (Homo sapiens) [9] = biological target: T1, Tubulin (Homo sapiens) (UniProt P68371+Q9H4B7+P0DPH7+P68366+Q13509+Q71U36+P04350+Q3ZCM7+P07437+P68363+Q9BQE3+Q6PEY2+Q13885+Q9BVA1+Q9BUF5); test: Inhibition of tubulin (unknown origin) polymerization assessed as reduction microtubule formation at 10 uM by fluorometric analysis; format: protein-complex assay
# DU-145 [10] = test: Antiproliferative activity against human DU-145 cells assessed as cell growth inhibition incubated for 72 hrs by MTT assay; format: functional
# HT-29 [11] = test: Antiproliferative activity against human HT-29 cells assessed as cell growth inhibition incubated for 72 hrs by MTT assay; format: functional
# MCF7 [12] = test: Antiproliferative activity against human MCF7 cells assessed as cell growth inhibition at 25 uM incubated for 72 hrs by MTT assay relative to control; format: functional
# [13] = Antiproliferative activity against human SJG2 cells assessed as cell growth inhibition incubated for 72 hrs by MTT assay; format: functional; conditions: SJ-G2
# MIA PaCa-2 [14] = test: Induction of G2/M phase cell cycle arrest in human MIA PaCa-2 cells assessed as sub G1 phase cells at 1.0 uM incubated for 24 hrs by PI/RNase staining based analysis (reference value: 4 +/- 2%); format: functional
# MCF7 [15] = test: Antiproliferative activity against human MCF7 cells assessed as cell growth inhibition incubated for 72 hrs by MTT assay; format: functional
# [16] = Cytotoxicity against human MCF-10A cells assessed as cell growth inhibition at 25 uM incubated for 72 hrs by MTT assay relative to control; format: toxicity, cell-based
# U-87 MG [17] = test: Antiproliferative activity against human U87 cells assessed as cell growth inhibition at 25 uM incubated for 72 hrs by MTT assay relative to control; format: functional, U-87MG ATCC
# HT-29 [18] = test: Antiproliferative activity against human HT-29 cells assessed as cell growth inhibition at 25 uM incubated for 72 hrs by MTT assay relative to control; format: functional
# MIA PaCa-2 [19] = test: Induction of G2/M phase cell cycle arrest in human MIA PaCa-2 cells at 1.0 uM incubated for 24 hrs by PI/RNase staining based analysis (reference value: 20 +/- 1%); format: functional
# BE(2)-C [20] = test: Antiproliferative activity against human BE2C cells assessed as cell growth inhibition at 25 uM incubated for 72 hrs by MTT assay relative to control; format: functional
# A-431 [21] = test: Antiproliferative activity against human A-431 cells assessed as cell growth inhibition at 25 uM incubated for 72 hrs by MTT assay relative to control; format: functional
# MIA PaCa-2 [22] = test: Induction of G2/M phase cell cycle arrest in human MIA PaCa-2 cells assessed as S phase cells at 1.0 uM incubated for 24 hrs by PI/RNase staining based analysis (reference value: 11 +/- 1%); format: functional
# [23] = Cytotoxicity against human MCF-10A cells assessed as cell growth inhibition incubated for 72 hrs by MTT assay; format: toxicity, cell-based
# MIA PaCa-2 [24] = test: Induction of G2/M phase cell cycle arrest in human MIA PaCa-2 cells assessed as G1 phase cells at 1.0 uM incubated for 24 hrs by PI/RNase staining based analysis (reference value: 66 +/- 2%); format: functional
# A2780 [25] = test: Antiproliferative activity against human A2780 cells assessed as cell growth inhibition at 25 uM incubated for 72 hrs by MTT assay relative to control; format: functional
# NCI-H460 [26] = test: Antiproliferative activity against human NCI-H460 cells assessed as cell growth inhibition incubated for 72 hrs by MTT assay; format: functional
# MIA PaCa-2 [27] = test: Induction of G2/M phase cell cycle arrest in human MIA PaCa-2 cells at 5 uM incubated for 24 hrs by PI/RNase staining based analysis (reference value: 20 +/- 1%); format: functional
# A-431 [28] = test: Antiproliferative activity against human A-431 cells assessed as cell growth inhibition incubated for 72 hrs by MTT assay; format: functional
# NCI-H460 [29] = test: Antiproliferative activity against human NCI-H460 cells assessed as cell growth inhibition at 25 uM incubated for 72 hrs by MTT assay relative to control; format: functional
# A2780 [30] = test: Antiproliferative activity against human A2780 cells assessed as cell growth inhibition incubated for 72 hrs by MTT assay; format: functional
# MIA PaCa-2 [31] = test: Antiproliferative activity against human MIA PaCa-2 cells assessed as cell growth inhibition at 25 uM incubated for 72 hrs by MTT assay relative to control; format: functional
# MIA PaCa-2 [32] = test: Antiproliferative activity against human MIA PaCa-2 cells assessed as cell growth inhibition incubated for 72 hrs by MTT assay; format: functional
# BE(2)-C [33] = test: Antiproliferative activity against human BE2C cells assessed as cell growth inhibition incubated for 72 hrs by MTT assay; format: functional
# [34] = Antiproliferative activity against human SJG2 cells assessed as cell growth inhibition at 25 uM incubated for 72 hrs by MTT assay relative to control; format: functional; conditions: SJ-G2
# MIA PaCa-2 [35] = test: Induction of G2/M phase cell cycle arrest in human MIA PaCa-2 cells assessed as sub G1 phase cells at 5 uM incubated for 24 hrs by PI/RNase staining based analysis (reference value: 4 +/- 2%); format: functional
# MIA PaCa-2 [36] = test: Induction of G2/M phase cell cycle arrest in human MIA PaCa-2 cells assessed as G1 phase cells at 5 uM incubated for 24 hrs by PI/RNase staining based analysis (reference value: 66 +/- 2%); format: functional
# MIA PaCa-2 [37] = test: Induction of G2/M phase cell cycle arrest in human MIA PaCa-2 cells assessed as S phase cells at 5 uM incubated for 24 hrs by PI/RNase staining based analysis (reference value: 11 +/- 1%); format: functional
# DU-145 [38] = test: Antiproliferative activity against human DU-145 cells assessed as cell growth inhibition at 25 uM incubated for 72 hrs by MTT assay relative to control; format: functional
# U-87 MG [39] = test: Antiproliferative activity against human U87 cells assessed as cell growth inhibition incubated for 72 hrs by MTT assay; format: functional, U-87MG ATCC
# Tubulin (Homo sapiens) [40] = biological target: T1, Tubulin (Homo sapiens); test: Inhibition of tubulin (unknown origin) polymerization assessed as reduction microtubule formation at 10 uM measured after approximately 1 hrs by fluorometric analysis; format: protein-complex assay
structure (smiles),measurement,setting,value
COC(=O)Nc1nc2cc(C(=O)c3cccs3)ccc2[nH]1 [NOCODAZOLE],IC50,HepG2,5080 nM
same,Activity,MIA PaCa-2 [1],60%
same,Activity,MIA PaCa-2 [2],9%
same,Activity,MIA PaCa-2 [3],34%
same,IC50,WRL68,7560 nM
same,Activity,MIA PaCa-2 [4],14%
same,IC50,HCT-116,1810 nM
same,Activity,MIA PaCa-2 [5],37%
same,Activity,MIA PaCa-2 [6],8%
same,IC50,A549,5090 nM
same,Activity,MIA PaCa-2 [7],21%
same,Activity,MIA PaCa-2 [8],16%
same,IC50,HeLa,2220 nM
same,inhibition,Tubulin (Homo sapiens) [9],Active
COc1ccccc1/C=C/c1nc2ccccc2c(=O)[nH]1,GI50,DU-145 [10],900 nM
same,GI50,HT-29 [11],260 nM
same,inhibition at 25 µM,MCF7 [12],> 100%
same,GI50,[13],790 nM
same,Activity,MIA PaCa-2 [14],5%
same,GI50,MCF7 [15],350 nM
same,"inhibition at 72 h, 25 µM",[16],> 100%
same,inhibition at 25 µM,U-87 MG [17],> 100%
same,inhibition at 25 µM,HT-29 [18],> 100%
same,Activity,MIA PaCa-2 [19],27%
same,inhibition at 25 µM,BE(2)-C [20],> 100%
same,inhibition at 25 µM,A-431 [21],> 100%
same,Activity,MIA PaCa-2 [22],12%
same,GI50 at 72 h,[23],560 nM
same,Activity,MIA PaCa-2 [24],56%
same,inhibition at 25 µM,A2780 [25],> 100%
same,GI50,NCI-H460 [26],420 nM
same,Activity,MIA PaCa-2 [27],78%
same,GI50,A-431 [28],330 nM
same,inhibition at 25 µM,NCI-H460 [29],> 100%
same,GI50,A2780 [30],330 nM
same,inhibition at 25 µM,MIA PaCa-2 [31],> 100%
same,GI50,MIA PaCa-2 [32],370 nM
same,GI50,BE(2)-C [33],310 nM
same,inhibition at 25 µM,[34],> 100%
same,Activity,MIA PaCa-2 [35],6%
same,Activity,MIA PaCa-2 [36],10%
same,Activity,MIA PaCa-2 [37],6%
same,inhibition at 25 µM,DU-145 [38],> 100%
same,GI50,U-87 MG [39],1400 nM
same,inhibition,Tubulin (Homo sapiens) [9],Active
O=C1NC(c2cccc3ccccc23)Nc2ccccc21 (stereo unspecified),Activity,MIA PaCa-2 [1],55%
same,GI50,DU-145 [10],89 nM
same,GI50,HT-29 [11],20 nM
same,inhibition at 25 µM,MCF7 [12],> 100%
same,Activity,MIA PaCa-2 [2],11%
same,GI50,[13],50 nM
same,GI50,MCF7 [15],75 nM
same,"inhibition at 72 h, 25 µM",[16],> 100%
same,Activity,MIA PaCa-2 [3],63%
same,inhibition at 25 µM,U-87 MG [17],93%
same,inhibition at 25 µM,HT-29 [18],> 100%
same,Activity,MIA PaCa-2 [4],17%
same,inhibition at 25 µM,BE(2)-C [20],> 100%
same,Activity,MIA PaCa-2 [5],22%
same,inhibition at 25 µM,A-431 [21],> 100%
same,GI50 at 72 h,[23],40 nM
same,inhibition at 25 µM,A2780 [25],> 100%
same,GI50,NCI-H460 [26],37 nM
same,GI50,A-431 [28],20 nM
same,inhibition at 25 µM,NCI-H460 [29],> 100%
same,GI50,A2780 [30],31 nM
same,inhibition at 25 µM,MIA PaCa-2 [31],94%
same,inhibition,Tubulin (Homo sapiens) [40],Active
same,GI50,MIA PaCa-2 [32],48 nM
same,GI50,BE(2)-C [33],27 nM
same,inhibition at 25 µM,[34],> 100%
same,Activity,MIA PaCa-2 [6],11%
same,Activity,MIA PaCa-2 [7],4%
same,Activity,MIA PaCa-2 [8],17%
same,inhibition at 25 µM,DU-145 [38],> 100%
same,GI50,U-87 MG [39],220 nM
